According to US20230303552A1, “ARYLSULFONYL DERIVATIVES AND THEIR USE AS MUSCARINIC ACETYLCHOLINE RECEPTOR M5 INHIBITORS” (Vanderbilt University, priority 2020, published 2023):

Target: T1, human M5 receptors (hM5) (Homo sapiens, UniProt P08912)
T1 construct: expressed in transfected cells
T1 sequence (P08912 1-532): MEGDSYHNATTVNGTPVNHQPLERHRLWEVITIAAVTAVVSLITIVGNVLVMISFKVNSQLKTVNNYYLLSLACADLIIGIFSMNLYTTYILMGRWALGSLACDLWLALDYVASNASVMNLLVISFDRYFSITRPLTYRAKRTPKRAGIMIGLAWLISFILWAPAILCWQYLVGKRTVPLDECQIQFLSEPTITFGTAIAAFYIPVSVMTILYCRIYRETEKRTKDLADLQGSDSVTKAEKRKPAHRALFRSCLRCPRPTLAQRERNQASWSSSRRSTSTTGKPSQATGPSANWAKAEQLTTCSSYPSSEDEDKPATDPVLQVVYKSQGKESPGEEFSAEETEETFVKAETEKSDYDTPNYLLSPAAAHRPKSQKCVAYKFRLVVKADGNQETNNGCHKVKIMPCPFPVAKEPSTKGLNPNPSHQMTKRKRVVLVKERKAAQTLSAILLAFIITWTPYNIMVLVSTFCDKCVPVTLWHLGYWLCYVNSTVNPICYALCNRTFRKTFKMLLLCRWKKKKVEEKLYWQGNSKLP
Assay: Cell-based functional calcium mobilization assay of mAChR M5 activity (inhibition of EC80 acetylcholine response) in CHO cells
Details: CHO cells stably expressing hM5; for IC50: calcium flux (Fluo-4), EC80 acetylcholine addition; for EC80 MIN: minimum of EC80 acetylcholine response, normalized to maximum acetylcholine response
Method: All functional cell-based assays were performed essentially as previously described (Marlo et al., Mol.Pharm. 2009, 75(3), 577-588; Brady et al., J. Pharm. & Exp. Ther. 2008, 327, 941-953). Initial, single point (10 µM) competitive and non-competitive inhibitor characterization was performed in stable Chinese Hamster Ovary (CHO) cell lines constitutively expressing human M5 receptors. These were plated at 15,000 cells per 20 µL per well in Greiner 384-well black-walled, TC-treated, clear-bottomed plates (Fisher) in Ham’s F12 medium supplemented with 10% FBS and 20 mM HEPES. Cells were incubated overnight at 37° C. under 5% CO2. The following day, medium was exchanged with assay buffer (Hank’s Balanced Salt Solution supplemented with 20 mM HEPES and 2.5 mM Probenecid, pH 7.4) leaving 20 µL of assay buffer in each well. This was followed by the addition of 20 µL of 2.3 µM of Fluo-4 AM (Invitrogen) in assay buffer (final concentration 1.15 µM). The cells were then incubated 50 minutes at 37° C. under 5% CO2. The assay buffer plus dye was then exchanged with fresh assay buffer leaving a volume of 20 µL in each well. Test compounds were diluted into assay buffer to a 2X (20 µM) concentration in 0.2% dimethylsulfoxide (DMSO) in columns 3 - 22 with matching DMSO concentration in columns 1, 2, 23, and […]; compounds were added to the assay for a final concentration of 10 µM and a final DMSO concentration of 0.1%. Acetylcholine (Sigma-Aldrich) was prepared to provide 5X concentrations of EC20, EC80, and ECmax in the triple-addition assay, providing a signal window to view agonism, potentiation, and inhibition of the acetylcholine response as well as a means to normalize to the maximum acetylcholine response.
Either an FDSS (Hamamatsu) or Panoptic (WaveFront Biosciences) kinetic imaging plate reader was used for assay execution and measurement of calcium flux. After establishing baseline fluorescence, test compounds (20 µL) were added to the cells using the reader’s integrated pipettor and allowed to equilibrate for 140 seconds before addition of the EC20 concentration of acetylcholine (10 µL) along with vehicle in selected DMSO-only wells in the outer two columns. The EC80 concentration of acetylcholine (10 µL) was added 125 seconds after the EC20 addition along with ECmax concentration in the wells receiving vehicle in the second addition. The raw fluorescence data from each well was normalized to the corresponding initial fluorescence reading (static ratio). The maximum fluorescence value following each addition was determined and the minimum value within that same timeframe was subtracted for each well then normalized to the average of the ECmax maximum-minimum response, providing a %AChmax value for each addition for each well. The single point values represent mean values determined within the EC80 addition timeframe obtained from at least three independent determinations performed in triplicate or greater (error bars represent +/- SEM) unless otherwise specified.
Further characterization of competitive and non-competitive inhibitor compounds (compound potency and mAChR subtype-selectivity) was performed on the FDSS with calcium mobilization assays performed as previously described (Marlo et al., 2009; Brady et al., 2008) and in a format similar to that described above using the same reagents. CHO cells stably expressing hM1, hM2/Gqi5, hM3, hM4/Gqi5, hM5, rM1, rM2/Gqi5, rM3, rM4/Gqi5, or rMs were plated in the manner described above. A ten-point concentration range of test compound was serial diluted in assay buffer to 2X final concentration and acetylcholine was diluted in assay buffer to 5X of the EC20 and EC80 concentrations, determined empirically and 5X maximal (2 mM final concentration) stock concentrations. FDSS protocols were carried out as described above; the static ratio was calculated and the minimum response subtracted from the maximum response within the timeframe of each addition. […]

With `O=C(Nc1ccc2scnc2c1)[C@H]1CCN(S(=O)(=O)c2ccc3c(c2)CCO3)C[C@@H]1F` (racemic) [Compound 86, Trans-(rac)-N-(Benzo[d]thiazol-5-yl)-1-((2,3-Dihydrobenzofuran-5-yl)Sulfonyl)-3-Fluoropiperidine-4-Carboxamide] the IC50 was 177 nM and the “EC80 MIN” value was 2%.
`CC1Cc2cc(S(=O)(=O)N3CCC(C(=O)Nc4ccc5scnc5c4)CC3)ccc2O1` (racemic) [Compound 87, (rac)-N-(benzo[d]thiazol-5-yl)-1-((2-methyl-2.3-dihydrobenzofuran-5-yl)sulfonyl)piperidine-4-carboxamide] gave an IC50 of over 10000 nM.
For `C[C@@H]1CN(S(=O)(=O)c2ccc3c(c2)CCO3)CC[C@@H]1C(=O)Nc1ccc2scnc2c1` (racemic) [Compound 92, cis-(rac)-,N^_ (benzo[d]thiazol-5-yl)-1-((2,3-dihydrobenzofuran-5-yl)sulfonyl)-3-methylpiperidine-4-carboxamide], the IC50 was 631 nM and the “EC80 MIN” value was 4%.
For `C[C@@H]1CN(S(=O)(=O)c2ccc3ncsc3c2)CC[C@@H]1C(=O)Nc1ccc2scnc2c1` (racemic) [Compound 93, cis-(rac)-N-(benzo[d]thiazol-5-y1)-1-(benzo[d]thiazol-6-ylsulfonyl)-3-methylpiperidine-4-carboxamide], the IC50 was 2940 nM and the “EC80 MIN” value was 4%.
For `C[C@@H]1CN(S(=O)(=O)c2ccc(Cl)nc2)CC[C@@H]1C(=O)Nc1ccc2scnc2c1` (racemic) [Compound 94, cis-(rac)-N-(benzo[d]thiazol-5-yl)-1-((6-chloropyridin-3-yl)sulfonyl)-3-methylpiperidine-4-carboxamide], the IC50 was 4570 nM and the “EC80 MIN” value was 4%.
For `Cc1nn(C)cc1S(=O)(=O)N1CC[C@H](C(=O)Nc2ccc3scnc3c2)[C@H](C)C1` (racemic) [Compound 95, cis-(rac)-,N^_ (benzo[d]thiazol-5-yl)-1-((1,3-dimethyl-1H-pyrazol-4-yl)sulfonyl)-3-methylpiperidine-4-carboxamide], the IC50 was 4490 nM and the “EC80 MIN” value was 5%.
With `C[C@@H]1CN(S(=O)(=O)c2cccc3nsnc23)CC[C@@H]1C(=O)Nc1ccc2scnc2c1` (racemic) [Compound 96, cis-(rac)-1-(benzo[c][1,2,5]thiadiazol-4-ylsulfonyl)-N-(benzo[d]thiazol-5-yl)-3-methylpiperidine-4-carboxamide] the IC50 was 1110 nM and the “EC80 MIN” value was 3%.
`C[C@@H]1C[C@H](C(=O)Nc2ccc3scnc3c2)CCN1S(=O)(=O)c1ccc2c(c1)CCO2` (racemic) [Compound 97, cis-(rac)-N-(benzo[d]thiazol-5-yl)-1-((2,3-dihydrobenzofuran-5-yl)sulfonyl)-2-methylpiperidine-4-carboxamide] was tested, and the IC50 was 159 nM and the “EC80 MIN” value was 2%.
In the case of `Cc1nn(C)cc1S(=O)(=O)N1CC[C@@H](C(=O)Nc2ccc3scnc3c2)C[C@H]1C` (racemic) [Compound 98, cis-(rac)-,N^_ (benzo[d]thiazol-5-yl)-1-((1,3-dimethyl-1H-pyrazol-4-yl)sulfonyl)-2-methylpiperidine-4-carboxamide], the IC50 is reported as 324 nM and the “EC80 MIN” value is reported as 3%.
With `C[C@@H]1C[C@H](C(=O)Nc2ccc3scnc3c2)CCN1S(=O)(=O)c1cccc2nsnc12` (racemic) [Compound 99, cis-(rac)-1-(benzo[c][1,2.5]thiadiazol-4-ylsulfonyl)-N-(benzo[d]thiazol-5-yl)-2-methylpiperidine-4-carboxamide] the IC50 was 389 nM and the “EC80 MIN” value was 3%.
`C[C@@H]1CN(S(=O)(=O)c2cccnc2)CC[C@@H]1C(=O)Nc1ccc2scnc2c1` (racemic) [Compound 103, cis-(rac)-N-(benzo[d]thiazol-5-yl)-3-methyl-1-(pyridin-3-ylsulfonyl)piperidine-4-carboxamide] was tested, and the IC50 was over 10000 nM and the “EC80 MIN” value was 5%.
`C[C@H]1CN(S(=O)(=O)c2ccc3c(c2)CCO3)CC[C@@H]1C(=O)Nc1ccc2scnc2c1` (racemic) [Compound 116, trans-(rac)-N-(benzo[d]thiazol-5-yl)-1-((2,3-dihydrobenzofuran-5-yl)sulfonyl)-3-methylpiperidine-4-carboxamide] was tested, and the IC50 was 1540 nM and the “EC80 MIN” value was 3%.
With `C[C@H]1CN(S(=O)(=O)c2ccc3ncsc3c2)CC[C@@H]1C(=O)Nc1ccc2scnc2c1` (racemic) [Compound 117, trans-(rac)-N-(benzo[d]thiazol-5-yl)-1-(benzo[d]thiazol-6-ylsulfonyl)-3-methylpiperidine-4-carboxamide] the IC50 was 8920 nM and the “EC80 MIN” value was 5%.
For `C[C@H]1CN(S(=O)(=O)c2ccc(Cl)nc2)CC[C@@H]1C(=O)Nc1ccc2scnc2c1` (racemic) [Compound 118, trans-(rac)-N-(benzo[d]thiazol-5-yl)-1-((6-chloropyridin-3-yl)sulfonyl)-3-methylpiperidine-4-carboxamide], the IC50 was 803 nM and the “EC80 MIN” value was 4%.
In the case of `C[C@H]1CN(S(=O)(=O)c2cccnc2)CC[C@@H]1C(=O)Nc1ccc2scnc2c1` (racemic) [Compound 119, trans-(rac)-N-(benzo[d]thiazol-5-yl)-3-methyl-1-(pyridin-3-ylsulfornyl)piperidine-4-carboxamide], the IC50 is reported as 982 nM and the “EC80 MIN” value is reported as 4%.
With `C[C@@H]1C[C@@H](C(=O)Nc2ccc3scnc3c2)CCN1S(=O)(=O)c1ccc(Cl)nc1` (racemic) [Compound 120, trans-(rac)-N-(benzo[d]thiazol-5-yl)-1-((6-chloropyridin-3-yl)sulfonyl)-2-methylpiperidine-4-carboxamide] the IC50 was 275 nM and the “EC80 MIN” value was 3%.
For `C[C@@H]1C[C@@H](C(=O)Nc2ccc3scnc3c2)CCN1S(=O)(=O)c1cccc2nsnc12` (racemic) [Compound 121, trans-(rac)-1-(benzo[c][1,2,5]thiadiazol-4-ylsulfonyl-N-(benzo[d]thiazol-5-yl)-2-methylpiperidine-4-carboxamide], the IC50 was 449 nM and the “EC80 MIN” value was 3%.
With `C[C@@H]1C[C@@H](C(=O)Nc2ccc3scnc3c2)CCN1S(=O)(=O)c1ccc2c(c1)CCO2` (racemic) [Compound 122, trans-(rac)-N-(benzo[d]thiazol-5-yl)-1-((2.3-dihydrobenzofuran-5-yl)sulfonyl)-2-methylpiperidine-4-carboxamide] the IC50 was 94 nM and the “EC80 MIN” value was 3%.
In the case of `Cc1nn(C)cc1S(=O)(=O)N1CC[C@H](C(=O)Nc2ccc3scnc3c2)C[C@H]1C` (racemic) [Compound 123, trans-(rac)-N-(benzo[d]thiazol-5-yl)-1-((1,3-dimethyl-1H-pyrazol-4-yl)sulfonyl)-2-methylpiperidine-4-carboxamide], the IC50 is reported as 174 nM and the “EC80 MIN” value is reported as 3%.
`CC1(C)COc2ccc(S(=O)(=O)N3CC4CC4(C(=O)Nc4ccc5scnc5c4)C3)cc21` (racemic) [Compound 130, (rac)-N-(benzo[d]thiazol-5-yl)-3-((3,3-dimethyl-2,3-dihydrobenzofuran-5-yl)sulfonyl)-3-azabicyclo[3.1.0)hexane-1-carboxamide] was tested, and the IC50 was over 10000 nM and the “EC80 MIN” value was 62%.
